# Like-named read-outs stand apart in the source and are kept apart here.
# Columns and labels:
# HepG2 cells = experiment: High content imaging cytotoxicity parameters: selected cell count per valid field (SCC) and CMFDA cytoplasm average intensity
# Protocol: (§1) HepG2 cells (Order No. HB-8065, Lot. 58483209, ATCC, Manassas, USA) were cultured in DMEM/F12 with L-Glutamine and 15 mM Hepes supplemented with 10% (v/v) FBS, 1% (v/v) penicillin (10 kU/ml)/streptomycin (10 mg/ml) solution, 0.1% (v/v) gentamicin (50 mg/ml), and 1 mM sodium pyruvate at 37° C. and 5% CO2 in culture flasks. Depending on the experiment, an appropriate number of cells were seeded onto plates after detaching of the cells using trypsin and cells were cultured at 37° C. and 5% CO2 for 24 h prior to treatment. All experiments were performed three times with cells of passages 4-20.
# (§2) Cells were seeded onto black Poly-D-Lysin coated 96-well-plates (BD Biocoat, Franklin Lakes, USA) (0.02×10^6 cells/well) and left 24 h for adherence and then treated with test compounds at a maximum concentration of 1 mM which is recommended by the ICH S2(R1) guideline (EMA, 2011). For each compound, nine concentrations were tested with 2-fold serial dilutions. DMSO 1% (v/v) served as vehicle control for the experiments. The treatment procedure was different for direct-genotoxic and pro-genotoxic compounds. The treatment for direct genotoxic compounds was ongoing and was repeated daily over 48 h. Pro-genotoxic compounds were incubated for 6 h together with metabolic activation system (to limit the cytotoxic effect of the S9-mixture). After this period, cells were washed with cell media followed by 18-repeated daily over 48 h. The metabolic activation system used consisted of the following components and concentrations: 8 mM MgCl2, 32.8 mM KCl, 12 mM NADPH, 124 mM phosphate buffer and 2500 pmol/ml cytochrome P450 (CYP) content in the pre-mixture corresponding to 2.4 mM MgCl2, 9.8 mM KCl, 3.6 mM NADPH, 37.2 mM phosphate buffer, and 750 pmol/ml CYP as final concentrations after dilution 1:3.33 with cell culture media.
# After treatment, cells were rinsed with PBS (Gibco Invitrogen, Karlsruhe, Germany), and then stained with 10 μM CellTracker Green 5-Chloromethylfluorescein Diacetate (CMFDA) (Invitrogen, Karlsruhe, Germany) in cell culture media for 30 min. CMFDA is per se non-fluorescent and is hydrolyzed by esterase in viable cells to a fluorescent-dye. The reaction with thiol groups leads to a cell-impermeable fluorescent-dye-adduct. The esterase activity can be used as an indicator for viability of cells (Papadopoulos et al., 1994, J Immunol Methods 177, 101-11). Afterwards, cells were washed with PBS and fixed with 3.7% Formaldehyde (Sigma-Aldrich, Taufkirchen, Germany) in PBS for 20 min. After that, cells were washed with PBS and blocked and permeabilized with 2% donkey serum (Millipore, Schwalbach, Germany) and 0.25% Triton X-100 (Sigma-Aldrich, Taufkirchen, Germany) in PBS for 30 min. Primary antibodies were diluted in Blocking/Permeabilization solution to final concentrations of 4 μg/ml anti-p-Chk1 (Ser345) goat polyclonal antibody IgG (santa cruz, Santa Cruz, USA), 4 μg/ml anti-p-ATM (Ser1981) mouse monoclonal antibody IgG1K (Millipore, Schwalbach, Germany) and added to the cells. After incubation for 16-18 h, cells were washed with 0.05% Tween 20 (Calbiochem, Darmstadt, Germany) in PBS, and the secondary antibody/16 μM Hoechst staining solution Blocking/Permeabilization solution was added. Secondary antibodies were diluted 1:400 (Alexa Fluor 555 donkey anti-goat, Alexa Fluor 647 donkey anti-mouse, Invitrogen, Karlsruhe, Germany). After an incubation of 1 h, followed by two additional washing steps with 0.05% Tween 20, cells were washed with PBS and finally PBS was added and cells were measured.
# Image acquisition was performed on the ArrayScan VTI HCS Reader (Cellomics, Pittsburgh, USA) using a 20× objective. To detect enough cells, 50 images starting at the middle of each well were gathered.
# • Channel 1: selected cell count per valid field • Channel 2: CMFDA cytoplasm average intensity • Channel 3: p-Chk1 (Ser345) nucleus average intensity • Channel 4: p-ATM (Ser1981) nucleus average intensity
# [1] = tested on: p-p53 (Ser15), p21, p-H2A.X (Ser139), p-ATM (Ser1981), p-Chk1 (Ser345) in HepG2 cells
# Protocol: as §1, §2
# Two different staining procedures were performed for each compound with and without metabolic activation system:
# After treatment, cells were rinsed with PBS (Gibco Invitrogen, Karlsruhe, Germany), and then fixed with 3.7% formaldehyde (Sigma-Aldrich, Taufkirchen, Germany) in PBS for 20 min. After an additional washing step with PBS, cells were blocked and permeabilized with 2% donkey serum (Millipore, Schwalbach, Germany) and 0.25% Triton X-100 (Sigma-Aldrich, Taufkirchen, Germany) in PBS for 30 min. Primary antibodies were diluted to final concentrations of 2 μg/ml anti-p-p53 (Ser15) rabbit monoclonal antibody IgG (Invitrogen, Karlsruhe, Germany), 0.8 μg/ml anti-p21 goat polyclonal antibody IgG, (R&D systems, Minneapolis, USA); 4 μg/ml anti-p-Histone H2A.X (Ser139) mouse monoclonal antibody IgG1 (Millipore, Schwalbach, Germany) in Blocking/Permeabilization solution were added afterwards. After incubation for 16-18 h, cells were washed with 0.05% Tween 20 (Calbiochem, Darmstadt, Germany) in PBS and the secondary antibody/16 μM Hoechst staining solution in Blocking/Permeabilization solution was added. Secondary antibodies were diluted 1:400 (Alexa Fluor 488 donkey anti-rabbit, Alexa Fluor 555 donkey anti-goat, Alexa Fluor 647 donkey anti-mouse, Invitrogen, Karlsruhe, Germany). After an incubation of 1 h, followed by two additional washing steps with 0.05% Tween 20, cells were washed with PBS and finally PBS was added and cells were measured.
# After treatment, cells were rinsed with PBS (Gibco Invitrogen, Karlsruhe, Germany), and then stained with 10 μM CellTracker Green 5-Chloromethylfluorescein Diacetate (CMFDA) (Invitrogen, Karlsruhe, Germany) in cell culture media for 30 min. CMFDA is per se non-fluorescent and is hydrolyzed by esterase in viable cells to a fluorescent-dye. The reaction with thiol groups leads to a cell-impermeable fluorescent-dye-adduct. The esterase activity can be used as an indicator for viability of cells (Papadopoulos et al., 1994, J Immunol Methods 177, 101-11). Afterwards, cells were washed with PBS and fixed with 3.7% Formaldehyde (Sigma-Aldrich, Taufkirchen, Germany) in PBS for 20 min.
# p-ATM (Ser1981) = experiment: High content imaging of p-ATM (Ser1981) nucleus average intensity; assay type: cell-based, human; conditions: HepG2 cells, 48 h; fold-change over vehicle control, threshold 1.8
# Protocol: as §1
# Cells were seeded onto black Poly-D-Lysin coated 96-well-plates (BD Biocoat, Franklin Lakes, USA) (0.02×10^6 cells/well) and left 24 h for adherence and then treated with test compounds at a maximum concentration of 1 mM which is recommended by the ICH S2(R1) guideline (EMA, 2011). […]
# After treatment, cells were rinsed with PBS (Gibco Invitrogen, Karlsruhe, Germany), and then stained with 10 μM CellTracker Green 5-Chloromethylfluorescein Diacetate (CMFDA) (Invitrogen, Karlsruhe, Germany) in cell culture media for 30 min. […] After an incubation of 1 h, followed by two additional washing steps with 0.05% Tween 20, cells were washed with PBS and finally PBS was added and cells were measured.
# Image acquisition was performed on the ArrayScan VTI HCS Reader (Cellomics, Pittsburgh, USA) using a 20× objective. […]
# [2] = HepG2 cells, 48 h, CMFDA cytoplasm average intensity, with rat liver S9 (+S9)
# [3] = HepG2 cells, 48 h, CMFDA cytoplasm average intensity, without metabolic activation (−S9)
# [4] = HepG2 cells, 48 h, selected cell count per valid field, with rat liver S9 (+S9)
# [5] = HepG2 cells, 48 h, selected cell count per valid field, without metabolic activation (−S9)
# [6] = HepG2 cells ± S9, 48 h, positive if at least one of five proteins shows fold-change above threshold (2.1 p-Chk1, p-H2A.X; 1.8 p21, p-ATM; 1.9 p-p53)
SMILES,CMFDA +S9 highest conc. <50% cytotox. over control (HepG2 cells; [2]) [µM],CMFDA −S9 highest conc. <50% cytotox. over control (HepG2 cells; [3]) [µM],SCC +S9 highest conc. <50% cytotox. over control (HepG2 cells; [4]) [µM],SCC −S9 highest conc. <50% cytotox. over control (HepG2 cells; [5]) [µM],"result for the five protein markers tested (compound set as positive or negative) [1, 6]","CMFDA +S9 highest conc. <50% cytotox. over control (HepG2 cells; human, 48 h) [µM]","CMFDA −S9 highest conc. <50% cytotox. over control (HepG2 cells; human, 48 h) [µM]","SCC +S9 highest conc. <50% cytotox. over control (HepG2 cells; human, 48 h) [µM]","SCC −S9 highest conc. <50% cytotox. over control (HepG2 cells; human, 48 h) [µM]",further results
[Cl][Cd][Cl] [Cadmium chloride],62.5,62.5,125,31.25,no positive result,–,–,–,–,–
CCN(N=O)C(N)=O [Ethylnitrosourea],1000,1000,1000,1000,no positive result,–,–,–,–,–
C=CCc1ccc(O)c(OC)c1 [Eugenol],–,–,–,–,–,125,1000,125,1000,result for the five protein markers tested (compound set as positive or negative) [1]: positive
c1ccc2c(c1)ccc1ccccc12 [Phenanthrene],–,–,–,–,–,1000,1000,1000,1000,result for p-ATM (Ser1981) (p-ATM (Ser1981)): positive
CCCOC(=O)c1cc(O)c(O)c(O)c1 [Propyl gallate],–,–,–,–,–,1000,1000,1000,500,result for the five protein markers tested (compound set as positive or negative) [1]: positive
"Oc1ccc(Cl)cc1Cl [2,4-Dichlorophenol]",–,–,–,–,positive,–,–,–,–,CMFDA +S9 highest conc. <50% cytotox. over control (HepG2 cells; human): 1000 µM; CMFDA −S9 highest conc. <50% cytotox. over control (HepG2 cells; human): 1000 µM; SCC +S9 highest conc. <50% cytotox. over control (HepG2 cells; human): 500 µM; SCC −S9 highest conc. <50% cytotox. over control (HepG2 cells; human): 250 µM
"Cc1ccc(N)cc1N [2,4-diaminotoluene]",1000,1000,1000,1000,no positive result,–,–,–,–,–

# Source: US20150140123A1, “Protein expression analyses for identifying genotoxic compounds” (Merck Patent GmbH, priority 2012, published 2015)
